Reference: patent publication US9037228B2, “Method and system for detecting electrophysiological changes in pre-cancerous and cancerous tissue” (Epi-Sci, LLC, priority 2002, dated 2015)
Where two headings read alike, the source gives them in different places.

What was measured:
[1] = system: human prostatic epithelial cells; details: cells grown in presence of DHT
Text: FIG. 13 represent measurements of cell membrane potential (ψ) in human prostatic epithelial cells under different growth conditions. A Voltage-sensitive FRET (fluorescent energy transfer) probe was used for potentiometric ratio measurements. It has two fluorescent components: CC2-DMPE (Coumarin) and DISBAC2(3) (Oxonol). The oxonol distributes itself on opposite sides of the cell membrane in a Nernstian manner according to the ψ. The voltage sensitive distribution of oxonol is transduced through a ratiometric fluorescence signal via the coumarin which is bound to the outside surface of the cell membrane thereby amplifying the fluorescence. Measurements were made using a fluorescence microscope and a digital imaging system. The ratio measurements are calibrated using Gramicidin D to depolarize the cell membrane and then varying the external K^+-concentration. The calibrated cell membrane potential in mV is depicted on the y-axis.
The filled bars indicates the ψ of exponentially growing prostatic epithelial cells before they reach confluence, whereas the open bars depict the ψ of the cells once they reach confluence and cell growth slows.

[2] = system: apical K+ channels of human colonic mucosa; details: normal colon, 30 mM mucosal TEA after elevated serosal K+, 0.1 mM amiloride present
Procedure: The potassium permeability of the apical membrane of human colonic mucosa (P^Ka) was determined in surgical specimens of controls and grossly normal-appearing mucosa obtained 10-30 cm proximal to colorectal adenocarcinomas. The mucosa was mounted in Ussing chambers and the basolateral membrane resistance and voltage were nullified by elevating the K^+ in the serosal bathing solution. The apical sodium (Na^+) conductance was blocked with 0.1 mM amiloride. This protocol reduces the equivalent circuit model of the epithelium to an apical membrane conductance and electromotive force in parallel with the paracellular pathway as has been verified by microelectrode studies. […] The serosal bath was remained constant at 125 mM [K].

[3] = system: colonic mucosa; assay: TEP response of colonic mucosa to topically applied amiloride
Text: The measured TEP decreases in response to a topically applied amiloride (a sodium channel blocker) in normal colonic mucosa. This response is reduced by approximately 50% in pre-cancerous mucosa or by greater than 75% in cancerous mucosa. In addition, the loss in sodium conductance results in an increase of impedance of the surface epithelium. This ion transport alteration may be measured by determining the change in TEP as well as the basal impedance. In abnormal pre-cancerous or cancerous tissue, the TEP is lower, the response of the TEP to amiloride is less, and the increase in impedance (observed in normal colon in response to amiloride) is less in abnormal pre-cancerous or cancerous tissue. Similar pharmacological agents may be introduced that alter the effect of chloride or potassium ion transport, which affect abnormal pre-cancerous or cancerous tissue in a different manner than in normal colon tissue.

[4] = system: human breast epithelial cells; assay: Cell membrane potential (ψ) in human breast epithelial cells, potentiometric fluorescent probe; assay type: cell-based
Procedure: Measurements were made using a potentiometric fluorescent probe, and ratiometric measurements, which are calibrated using valinomycin and K^+-gradients. ψs were measured in the presence (closed circles) and absence (open circles) of estradiol (the active metabolite of estrogen). Each symbol is the mean measurement. The upper error bar is the standard error of the mean, and the lower error bar is the 95% confidence level for the observations. The addition of estrogen to cultured breast epithelial cells results in an instantaneous increase in ψ (data not shown) as well as transepithelial potential see FIG. 10. Transepithelial potential (VT) of an epithelium is the sum of the apical (luminal) cell membrane potential (VA) and the basolateral (abluminal) cell membrane potential (VBL). Therefore VT=VA+VBL(changes in VA and VBL will therefore alter VT or transepithelial potential). […] Malignant and transformed cells have a ψ of between −31 and −35 mV in the absence of estradiol and approximately […] when estradiol is present in the culture medium.

[5] = system: benign and malignant human breast epithelial cells; assay: Transepithelial potential (TEP) of breast epithelial monolayers in modified Ussing chambers, voltage clamp; assay type: cell-based
Procedure: It should be noted that the instantaneous response, illustrated in FIG. 10, is greater in malignant epithelia, whereas the chronic or sustained exposure to estradiol results in a lower increase in TEP (transepithelial electropotential) in malignant cells. Concurrent measurement of surface electropotential and impedance allow the more accurate diagnosis of cancer. […] The cells were grown as monolayers on Millipore filters and grew to confluence in 7 to 10 days. The epithelia were then mounted in modified Ussing chambers and the TEP was measured using a voltage clamp. Increasing doses of estradiol between 0 and 0.8 μM were added (x-axis). The transepithelial potential was measured after each addition and the TEP was measured (y-axis). The different dose response is apparent for benign and malignant epithelia. Malignant epithelia have a lower TEP but undergo an instantaneous increase in TEP of approximately 9 mV (becomes more electronegative and reaches a level of <6 mV) after exposure to only 0.1 μM estradiol and then depolarize to approximately −2 mV with increasing doses of estradiol up to about 0.5 μM.

[6] = system: breast tissue; assay: Electrophysiological (TEP) response of breast tissue to estradiol given into the duct or sublingually; assay type: in vivo; details: into the duct or sublingual 17-β-estradiol (4 mg)
Procedure: In one method of present invention, estradiol is introduced directly into the duct or systematically following sublingual administration of 17-β-estradiol (4 mg). This agent produces a rapid response, which peaks at approximately 20 minutes. The electrophysiological response depends, in part, on the stage of the patient's menstrual cycle, as well as the condition of the breast tissue. Specifically, in normal breast tissue, a rise in TEP will occur during the follicular (or early) phase. In pre-cancerous or cancerous tissue, this response is abrogated.

[7] = malignant epithelia, after exposure to 0.1 μM estradiol

C[C@]12CCC(=O)C[C@@H]1CC[C@@H]1[C@@H]2CC[C@]2(C)[C@@H](O)CC[C@@H]12 [DHT, dihydroxytestosterone]
effect on cell membrane potential ψ ([1]; exponential growth): slightly hyperpolarized
effect on cell membrane potential ψ ([1]; on reaching confluence): depolarize

CC[N+](CC)(CC)CC [TEA, tetraethyl ammonium]
effect on Isc [2]: abrupt increase in Isc

N=C(N)NC(=O)c1nc(Cl)c(N)nc1N [amiloride]
reduction of the TEP response to amiloride ([3]; cancerous mucosa versus normal): greater than 75%
effect on measured TEP ([3]; normal colonic mucosa, topically applied): decreases
reduction of the TEP response to amiloride ([3]; pre-cancerous mucosa versus normal): approximately 50%

C[C@]12CC[C@@H]3c4ccc(O)cc4CC[C@H]3[C@@H]1CC[C@@H]2O [estradiol, 17-β-estradiol]
cell membrane potential ψ ([4]; benign breast epithelial cells, estradiol added to the culture media (about −50 mV without)): ~−70 mV
cell membrane potential ψ ([4]; malignant and transformed cells, estradiol present in culture medium (−31 to −35 mV without)): approximately 50 mV
estradiol dose at which TEP response peaks ([5]; benign epithelia, then remains persistently elevated): ~0.3 µM
TEP level reached [5, 7]: < 6 mV
instantaneous increase in TEP [5, 7]: approximately 9 mV
TEP after depolarization ([5]; malignant epithelia, increasing doses of estradiol up to about 0.5 μM): approximately −2 mV
time of peak electrophysiological response [6]: approximately 20 minutes
